According to patent publication US20250134907A1, “FUSED DIAZEPINES AS AGONISTS OF THE INSULIN-LIKE 3 (INSL3) PEPTIDE RECEPTOR RXFP2 AND METHODS OF USE THEREOF” (The United States of America,as represented by the …, priority 2022, published 2025):

Tests used:
WT RXFP2 = target: T1, WT RXFP2 (Homo sapiens, UniProt Q8WXD0); assay: HTRF cAMP assay in HEK293T cells transiently transfected with WT RXFP2; type: cell-based
T1 construct: using full-length human RXFP1 and RXFP2 receptor constructs; FLAG; expressed in transfected cells; host or cells: HEK293T (transient, Lipofectamine2000)
T1 sequence (Q8WXD0 whole entry): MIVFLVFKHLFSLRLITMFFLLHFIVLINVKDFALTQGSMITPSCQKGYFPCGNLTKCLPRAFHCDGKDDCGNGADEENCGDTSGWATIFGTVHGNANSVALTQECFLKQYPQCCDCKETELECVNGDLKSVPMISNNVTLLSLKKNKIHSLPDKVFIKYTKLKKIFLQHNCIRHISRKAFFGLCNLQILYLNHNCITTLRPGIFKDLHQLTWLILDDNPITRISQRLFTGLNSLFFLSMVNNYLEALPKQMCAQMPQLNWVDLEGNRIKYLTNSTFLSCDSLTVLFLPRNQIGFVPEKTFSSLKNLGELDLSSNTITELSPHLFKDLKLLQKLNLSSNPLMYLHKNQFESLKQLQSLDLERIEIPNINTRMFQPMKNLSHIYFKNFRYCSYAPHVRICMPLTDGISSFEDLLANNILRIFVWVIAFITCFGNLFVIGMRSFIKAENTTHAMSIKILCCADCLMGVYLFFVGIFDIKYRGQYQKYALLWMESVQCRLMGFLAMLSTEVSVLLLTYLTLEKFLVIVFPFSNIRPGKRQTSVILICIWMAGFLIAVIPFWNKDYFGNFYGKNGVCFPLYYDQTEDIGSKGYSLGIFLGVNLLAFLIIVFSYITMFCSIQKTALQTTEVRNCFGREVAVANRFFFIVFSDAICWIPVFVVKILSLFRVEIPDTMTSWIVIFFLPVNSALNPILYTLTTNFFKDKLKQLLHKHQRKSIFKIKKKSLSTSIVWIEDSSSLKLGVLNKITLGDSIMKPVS
Source text: To further investigate the involvement of the RXFP2 extracellular and transmembrane domains in agonist activation of the receptor, two complementary chimeras were created using the RXFP1 receptor, which is not activated by the agonists of formula (I), to transiently transfect HEK293T cells and measured changes in cAMP induction using the HTRF assay.
Chimeric receptors were generated by IN-FUSION™ (Takara Bio USA, Inc., San Jose, CA) mutagenesis using full-length human RXFP1 and RXFP2 receptor constructs. Polymerase chain reaction (PCR) was performed using PfuTurbo high-fidelity DNA polymerase (Agilent Technologies, Santa Clara, CA) and overlapping primers with at least 15 bp sequence homology within the fusion site. PCR products were digested with Dpnl restricton enzyme at 37° C. overnight, run on a 0.8% agarose gel and purified using the GENEJET™ Gel extraction kit (Thermo Scientific, Waltham, MA). The purified DNA fragments were then ligated into the BamHI and XhoI pre-digested pcDNA3.1™/Zeo(+) AmpR mammalian expression vector using the In-Fusion HD enzyme premix (Clontech, Mountain View, CA) at 50° C. for 15 minutes, and the resulting product was used to transform Stellar competent cells (Takara Bio USA, Inc., San Jose, CA). The clones were fully sequenced to confirm the correct fusion of both receptor fragments. Chimera RXFP2-1 contained the extracellular domain of RXFP2 and the transmembrane domain of RXFP1. Accordingly, chimera RXFP1-2 contained the extracellular domain of RXFP1 and the transmembrane domain of RXFP2.
HEK293T cells were seeded in 6-well flat-bottom clear plates at 0.5 million cells/well in 2 mL/well of growth medium (DMEM, 10% FBS, 1× Pen/Strep) and allowed to attach overnight at 37° C. and 5% CO2. The next morning, cells were transfected with 2 μg of plasmid (chimeric receptors, WT RXFP2, or WT RXFP1) and 6 μl of Lipofectamine2000 (Invitrogen, Waltham, MA) in a total volume of 200 μl/well OPTI-MEM™ I (Thermo Fisher, Waltham, MA) reduced serum medium and allowed to incubate an additional 24 hours. The next day, transfected cells were seeded in 96-well flat-bottom opaque plates at 30,000 cells/well in 60 μL/well of serum-free DMEM medium and allowed to attach overnight at 37° C. at 5% CO2. The next morning, cells were treated with 1 μL/well of compound (25 μM-0.25 nM), 2 μM forskolin, or DMSO vehicle. Cells were also treated with 4 μL of positive control INSL3 (100-0.01 nM), Relaxin2 (100-10 nM), or vehicle (serum-free DMEM+IBMX). Plates were incubated for 1 hour at 37° C. and 5% CO2, after which kit cAMP-d2 and anti-cAMP antibody were added as previously described. Cells were incubated for 1 hour at room temperature, and then the signal was read on a CLARIOstar plate reader (BMG Labtech, Germany).

[1] = test system: 320 GPCR Tango constructs; assay: PRESTO-Tango GPCRome counter-screen (beta-arrestin recruitment) in transiently transfected HTLA cells; type: cell-based; conditions: 10 μM compound, 320 GPCRs
Experimental: The PRESTO-Tango GPCRome assay, which measures G-protein coupled receptors (GPCR) mediated beta-arrestin recruitment, was used to perform a HTS of related GPCRs to study specificity and selectivity of the RXFP2 agonists. A total of 320 GPCR Tango constructs were tested. Each of the GPCR constructs used in the assay contained a FLAG tag, the GPCR gene of interest, a Vasopressin 2 C-terminal tail, the TEV protease cleavage site, and the tetracycline-controlled transactivator (tTA) transcription factor. The assay was performed using transiently transfected HTLA cells that stably express the beta-arrestin2-TEV protease fusion protein and a luciferase reporter gene under the control of the tTA transcription factor. Ligand activation of the transfected GPCR construct induces beta-arrestin translocation to the GPCR, where the tobacco etch virus (TEV) protease cleaves the tTA transcription factor, causing activation of luciferase transcription in the nucleus. Thus, luciferase activity in these cells is proportional to beta-arrestin translocation activity. For this assay, HTLA cells were seeded in Poly-L-Lys (PLL)-coated 384-well white clear-bottom plates at 10,000 cell/well in 40 μl/well DMEM supplemented with 10% FBS. […] Plates were incubated for 20 minutes at room temperature protected from light and the luminescence signal was read on a MicroBeta counter (PerkinElmer, Waltham, MA). […]

SMILES | Emax (WT RXFP2; HEK-293T, normalized to 2 μM forskolin cAMP response as 100% activity) [%] | EC50 (WT RXFP2; read-out: EC50 (μM or nM)) [µM] | GPCR agonist hits (minimum 3.0-fold RLU of basal) [1]
O=C1Nc2ccc(-c3cc(C(F)(F)F)cc(C(F)(F)F)c3)cc2C(=O)N2CCN(C(=O)COc3ccc(OC(F)(F)F)cc3I)C[C@@H]12 [Example 187, (S)-8-(3,5-bis(trifluoromethyl)phenyl)-2-(2-(2-iodo-4-(trifluoromethoxy)phenoxy)acetyl)-1,3,4,12a-tetrahydrobenzo[e]pyrazino[1,2-a][1,4]diazepine-6,12 (2H, 11H)-dione] | 86.3 ± 3.38 | 0.012 ± 0.008 | 
O=C1Nc2ccc(-c3cc(C(F)(F)F)cc(C(F)(F)F)c3)cc2C(=O)N2CCN(C(=O)COc3ccc(OC(F)(F)F)cc3Br)C[C@@H]12 [Example 158, (S)-8-(3,5-Bis(trifluoromethyl)phenyl)-2-(2-(2-bromo-4-(trifluoromethoxy)phenoxy)acetyl)-1,3,4,12a-tetrahydrobenzo[e]pyrazino[1,2-a][1,4]diazepine-6,12 (2H, 11H)-dione] |  |  | very few GPCR hits
